According to patent US20150125550A1, “APPLICATION OF 2,9-DI-SEC-BUTYL-1,10-PHENANTHROLINE AS A GLIOBLASTOMA TUMOR CHEMOTHERAPY” (priority 2013, published 2015):

Test system: GL-26 murine glioma cells
Assay: SRB growth assay of SBP and gold complexes on GL-26 (Example 4)
Type: cell-based, murine (C57BL/6)
Details: Mus musculus, GL26, 48 hr, read-out: concentration inhibiting GL-26 by 50%
Description: The murine (C57BL/6) glioma cell line, GL-26, which is highly tumorigenic in the C57BL/6 mice, was used. GL-26 cells were cultured in DMEM/F12 supplemented with 10% FCS, 1% penicillin/streptomycin, 1% L-glutamine and 1% non-essential amino acids. Human foreskin fibroblasts (HFFs) were cultured in DMEM/F12 supplemented with 10% FCS and 1% penicillin/streptomycin. Primary murine astrocytes were purified from C57BL/6 neonate brains and cultured in DMEM/F12 supplemented with 10% FCS, 1% non-essential amino acids, 1% L-glutamine, 50 IU/ml penicillin, […] and 10 mM Hepes buffer.
The sulforhodamine B (SRB) cytotoxicity assays were adapted from Skehan et al (21). Briefly, either HFF, primary astrocytes or GL-26 cells were plated in 96-well plates at a density of 4,000 cells/well in a volume of 100 µL overnight at 37° C. and 5% CO2. DMSO stock solutions of SBP, MSBP or TMZ were used at a concentration range of 0.1-25 μM for 48 hr before the supernatant was discarded and the cells were fixed for 1 hr with 10% cold trichloroacetic acid (100 μL per well). Cells used in recovery assay received fresh media for 48 hrs following the 48 hr drug incubation. […] Bound SRB was then read by absorbance at 492 nm on a SpectraMax plate reader (Molecular Devices). The percent survival was then calculated based upon the absorbance values relative to control wells (0 μM SBP in 0.1% DMSO).

IC50: 800 to 1600 nM
SMILES: CCC(C)c1ccc2ccc3ccc(C(C)CC)nc3c2n1 (stereo not shown) [Compound 1, 2,9-di-sec-butyl-1,10-phenanthroline]
